Measured values as given in patent US12617818B2, “Compositions and methods for modulating myosin subfragment-2 coiled coil stability and methods for using them” (UNIVERSITY OF NORTH TEXAS, priority 2020, dated 2026).
Where “and” joins values, the source holds several entries; their conditions need not be identical. Identical values can stand only once.

Tests used:
[1] = molecular target: T1, human cardiac myosin S2 peptide (Homo sapiens, UniProt P12883); assay: Competitive ELISA (cELISA) against polyclonal anti-S2 antibody; assay type: binding; settings: curve fit of OD vs peptide concentration; read-out: binding efficiency (Kd) to human cardiac myosin S2 peptide
T1 construct: The 19 residue peptide was chemically synthesized
Description: Phosphate buffer saline (PBS) contained 0.14 M sodium chloride, 2.7 mM potassium chloride, 1.5 mM potassium phosphate monobasic, and 8.1 mM sodium phosphate dibasic with pH 7.4. Detergent buffer was made with 0.05% triton X-100 in PBS, blocking buffer was made with 3% powdered milk in detergent buffer. Assay buffer contained 100 mM potassium phosphate dibasic, 100 mM potassium phosphate monobasic, 1 M potassium chloride and 10 mM magnesium chloride with pH 7.0. Stocks of primary antibody (polyclonal antibody anti-S2), rabbit skeletal myosin, human cardiac myosin S2 peptide, stabilizer and destabilizer peptide. Secondary antibody conjugated with alkaline phosphatase was anti-guinea pig immunoglobulin G (IgG)-alkaline phosphatase (Sigma-Aldrich, catalog number A5062) produced in goat and isolated by affinity chromatography. Substrate was 5-Bromo-4-chloro-3-indolyl phosphate (BCIP) tablets dissolved in 10 ml of distilled water per tablet and 96 well microtiter plate.
Competitive Enzyme Linked Immunosorbent Assay (cELISA) is a classical immunochemical test to validate the binding efficiency and specificity in lower molar concentrations (Yorde et al., 1976; Voller et al., 1978; Walker, J. M. 1996). In this assay the polyclonal antibody anti-S2 raised against single alpha helix of myosin S2 would be used to compete with stabilizer or destabilizer peptide to bind myosin S2 in rabbit skeletal myosin molecule as well as small human cardiac myosin S2 peptide. This cELISA, thus have two molecules polyclonal anti-S2 and stabilizer peptide which have two binding sites one on rabbit skeletal myosin and the other one being on small human cardiac myosin S2. Since both polyclonal anti-S2 and stabilizer peptide were designed against human β-cardiac myosin S2 they both would have a stronger affinity towards the smaller human β-cardiac myosin S2 peptide against the myosin S2 on rabbit skeletal myosin.
To test the binding specificity and efficiency of stabilizer or destabilizer peptide the following setup was used. Start of the setup would be to coat the wells with rabbit skeletal myosin molecule and add appropriate amount human cardiac myosin S2 peptide that would bind the primary polyclonal anti-S2 antibody and when washed there won't be enough primary polyclonal anti-S2 antibody to bind myosin S2 of rabbit skeletal myosin adsorbed on the wells. When alkaline phosphatase conjugated secondary antibody is added on to the wells, it won't have enough or none primary polyclonal anti-S2 antibody to bind. After addition of color developing BCIP substrate to the wells it would lead to low or no color development leading to lower optical density (OD). […]

[2] = molecular target: T2, cardiac muscle myosin S2 peptide (MYH7) (Homo sapiens, UniProt P12883); assay: Gravitational force spectroscopy (GFS), uncoiling of cardiac myosin S2 peptide dimer; assay type: biochemical; settings: for Force required to uncoil S2 molecule: length 10 nm, in presence of the anti-S2 peptide, ± SEM
T2 construct: host or cells: chemical synthesis
T2 sequence (P12883 912-947 limits assumed): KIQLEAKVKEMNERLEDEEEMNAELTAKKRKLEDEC
Description: 3-aminopropyltriethoxysilane, acetone, coupling buffer (0.01 M pyridine in water with pH 6.0), 5% glutaraldehyde, quenching solution (1 M glycine in water with pH 7.0), blocking buffer (0.01 M Tris, 0.1% sodium azide, 0.1% bovine serum albumin, 0.15 M sodium chloride, and 0.001 M ethylenediaminetetraacetic acid with pH 7.0), wash buffer (0.01 M Tris, 0.1% sodium azide, 0.15 M sodium chloride, and 0.001 M ethylenediaminetetraacetic acid with pH 7.0) low salt buffer (0.1 M potassium chloride, 0.02 M imidazole, 5 mM magnesium chloride, with pH 7.0), 1-ethyl-3-(3-dimethyaminopropyl) carbodiimide, N-hydroxysuccinamide, iodoacetamide-succinimidyl ester, 8M urea solution (50 mM imidazole and 0.1 mM tris (2-carboxyethyl) phosphine with pH 7.0) monodisperse silica beads, glass slides, glass coverslips, vacuum grease, rabbit skeletal myosin, purified actin (G-actin), 1 μM human β-cardiac myosin S2 peptide, 1 μM human β-cardiac mutants myosin S2 peptide (E930del and E924K), 1 μM human skeletal myosin S2 peptide, 1 μM human smooth myosin S2 peptide, stabilizer peptide, and destabilizer peptide. A light microscope with an objective lens of 10× was mounted on an alt-azimuthal mount. A digital video camera of Sony, XCD-V60 was replaced with the ocular lenses. Extension springs on steel bracket held the alt-azimuthal mount suspended.
Gravitational force spectroscopy (GFS), is a single molecule force spectroscopy that utilizes gravitational force to measure absolute length of a single molecule at the given force calculated by the density of the bead suspending the molecule. This technique was discovered and developed in Root lab, which measures the forces in piconewton and sub-piconewton levels. Other than absolute length of a molecule, GFS measures force range required to uncoil, stretch or extend the molecule yielding a force-distance profile for the suspended molecule. Besides that, based on the force-distance profile, number of amino acids within the molecule can be calculated. […] The GFS allowed to test the flexibility or stability of a single molecule of myosin S2 peptide and also for the S2 peptides treated with anti-S2 peptides. Flexibility of myosin S2 is not dependent on assembly myosin as a thick filament or myosin in its single molecule form. The flexibility of myosin S2 region was reported to be similar in single molecule form or myosin in a thick filament assembly thus it could be conceived that the changes seen on flexibility of myosin S2 in presence of anti-S2 peptides would correlate to changes in myosin S2 flexibility for myosin in a thick filament form (Singh et al., 2018). The schematic diagram of GFS is shown below (schematic diagrams of GFS which has two modes: (FIG. 15) free-fall mode, (FIG. 16) rotational mode.
GFS set up assembly contains a light microscope that is horizontally mounted on an alt-azimuthal which is suspended with help of extension springs on a steel bracket. To capture both images and videos of suspended molecule, a digital video camera has been placed instead of the ocular lenses. The molecule of interest is tethered between an immobile edge of glass coverslip placed on a glass slide and mobile silica or glass bead. Slide with the molecule of interest in inserted into the light microscope component of GFS. The bead with molecule of interest is imaged through the microscope and then oriented to the direction of gravity vector to allow the maximal gravitation force exerted on to the bead. GFS has two modes, one is called rotational mode or an equilibrium mode which measures the absolute length of a single molecule and the second one is called free fall mode which measures the force required to unwind, uncoil, stretch or extend the molecule of interest.
Free fall mode, another measurement variant of GFS which allows the user to get a force distance profile on a single molecule experiencing the gravitational force. […]

Row | Compound | Kd [1] | Force required to uncoil S2 molecule [2] | Force required to uncoil S2 molecule ([2]; listed as destabilizer) | decrease of force required to uncoil the coiled coil ([2]; vs absence of anti-S2 peptide) | Force required to uncoil S2 molecule ([2]; listed as stabilizer) | increase of force required to uncoil the coiled coil ([2]; vs absence of anti-S2 peptide)
1 | CSCC[C@H](NC(=O)[C@H](CCC(=O)O)NC(=O)[C@H](CCCNC(=N)N)NC(=O)[C@H](CCC(=O)O)NC(=O)[C@H](CC(=O)O)NC(=O)[C@H](CCC(=O)O)NC(=O)[C@H](CC(C)C)NC(=O)[C@H](CCCNC(=N)N)NC(=O)[C@H](CCC(=O)O)NC(=O)[C@H](CC(N)=O)NC(=O)[C@H](CCSC)NC(=O)[C@@H](N)CCC(=O)O)C(=O)N[C@@H](CCCCN)C(=O)N[C@@H](C)C(=O)N[C@@H](CCC(=O)O)C(=O)N[C@@H](CC(C)C)C(=O)N[C@H](C(=O)N[C@@H](C)C(=O)N[C@@H](CCCCN)C(=O)O)[C@@H](C)O [Destabilizer] | 6 nM and 1 nM | 4.36E−01 ± 3.30E−02 pN | 4.36×10^−1±3.30×10^−2 pN | 1.98 times | – | –
2 | C[C@H](NC(=O)[C@H](CCCCN)NC(=O)[C@H](Cc1ccccc1)NC(=O)[C@H](CCCCN)NC(=O)[C@H](CCCCN)NC(=O)[C@H](CCCCN)NC(=O)[C@H](CCCCN)NC(=O)[C@H](CCCCN)NC(=O)[C@H](CCCCN)NC(=O)[C@H](CCCCN)NC(=O)[C@@H](N)CCCCN)C(=O)N[C@@H](CCCCN)C(=O)N[C@@H](CCCCN)C(=O)N[C@@H](CCCCN)C(=O)N[C@@H](CCCCN)C(=O)N[C@@H](CCCCN)C(=O)N[C@@H](CCCCN)C(=O)O [Stabilizer] | 1 nM | 1.55E+00 ± 1.46E−01 pN | – | – | 1.55±1.46×10^−1 pN | 1.80 times
